Measurements: the kinase profiling compilation of Christmann-Franck et al. (2016)

Legend:
Assay in all cases: radiometric filter-binding kinase assay, Kinase HotSpot
Conditions in all cases: compound 0.5 µM; ATP 10 µM
STK24 (human) = STK24 (human) (UniProt Q9Y6E0)
CDK2 CCNA2 (human) = CDK2 CCNA2 (human) (UniProt P24941+P20248)
ADRBK2 (human) = ADRBK2 (human) (UniProt P35626)
MAP3K11 (human) = MAP3K11 (human) (UniProt Q16584)
ALK (human) = ALK (human) (UniProt Q9UM73)
NTRK2 (human) = NTRK2 (human) (UniProt Q16620)
MARK4 (human) = MARK4 (human) (UniProt Q96L34)
CAMKK1 (human) = CAMKK1 (human) (UniProt Q8N5S9)
TXK (human) = TXK (human) (UniProt P42681)
MYLK2 (human) = MYLK2 (human) (UniProt Q9H1R3)
EPHA4 (human) = EPHA4 (human) (UniProt P54764)
DAPK3 (human) = DAPK3 (human) (UniProt O43293)
MELK (human) = MELK (human) (UniProt Q14680)
PRKCZ (human) = PRKCZ (human) (UniProt Q05513)
MAPK9 (human) = MAPK9 (human) (UniProt P45984)
MET (human) = MET (human) (UniProt P08581)
MET (human), sequence (P08581 whole entry, looked up): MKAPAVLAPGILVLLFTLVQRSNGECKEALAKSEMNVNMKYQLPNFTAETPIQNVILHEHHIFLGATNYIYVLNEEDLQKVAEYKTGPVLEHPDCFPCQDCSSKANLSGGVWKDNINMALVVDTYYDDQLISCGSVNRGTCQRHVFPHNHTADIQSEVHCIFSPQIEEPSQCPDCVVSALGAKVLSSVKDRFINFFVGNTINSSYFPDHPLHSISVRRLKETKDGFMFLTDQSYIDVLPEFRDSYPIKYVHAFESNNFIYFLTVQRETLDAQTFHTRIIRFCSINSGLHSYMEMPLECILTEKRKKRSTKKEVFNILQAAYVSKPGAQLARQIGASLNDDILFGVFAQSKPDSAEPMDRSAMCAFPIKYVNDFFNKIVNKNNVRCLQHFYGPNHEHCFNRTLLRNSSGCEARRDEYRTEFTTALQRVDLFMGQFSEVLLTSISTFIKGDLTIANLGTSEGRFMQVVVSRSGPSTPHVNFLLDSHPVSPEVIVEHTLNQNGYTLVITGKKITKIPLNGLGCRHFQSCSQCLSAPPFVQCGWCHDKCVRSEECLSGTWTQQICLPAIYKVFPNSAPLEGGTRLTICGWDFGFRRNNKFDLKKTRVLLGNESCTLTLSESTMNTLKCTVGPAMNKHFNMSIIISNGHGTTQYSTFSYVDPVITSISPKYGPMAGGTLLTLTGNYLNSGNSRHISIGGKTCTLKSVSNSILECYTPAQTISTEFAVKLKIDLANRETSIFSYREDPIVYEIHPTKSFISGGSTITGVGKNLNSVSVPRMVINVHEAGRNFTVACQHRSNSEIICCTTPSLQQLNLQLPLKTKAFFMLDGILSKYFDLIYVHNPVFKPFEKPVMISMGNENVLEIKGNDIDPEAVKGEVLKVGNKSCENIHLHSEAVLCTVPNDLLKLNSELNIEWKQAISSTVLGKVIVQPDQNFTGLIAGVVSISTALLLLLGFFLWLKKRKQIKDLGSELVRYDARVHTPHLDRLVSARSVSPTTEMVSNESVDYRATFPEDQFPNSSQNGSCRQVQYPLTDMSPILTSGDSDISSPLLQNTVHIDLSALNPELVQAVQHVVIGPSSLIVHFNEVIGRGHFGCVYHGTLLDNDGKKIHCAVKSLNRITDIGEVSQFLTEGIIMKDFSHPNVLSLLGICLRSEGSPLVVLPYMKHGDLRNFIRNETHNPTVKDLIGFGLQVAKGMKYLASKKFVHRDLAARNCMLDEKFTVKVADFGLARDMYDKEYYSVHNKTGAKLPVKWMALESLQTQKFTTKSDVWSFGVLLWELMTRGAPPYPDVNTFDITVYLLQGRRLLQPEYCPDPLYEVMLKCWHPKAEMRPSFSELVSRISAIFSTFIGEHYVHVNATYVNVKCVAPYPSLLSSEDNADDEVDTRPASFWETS

ROCK2 (human) = ROCK2 (human) (UniProt O75116)
VRK1 (human) = VRK1 (human) (UniProt Q99986)
VRK1 (human), sequence (Q99986 whole entry, looked up): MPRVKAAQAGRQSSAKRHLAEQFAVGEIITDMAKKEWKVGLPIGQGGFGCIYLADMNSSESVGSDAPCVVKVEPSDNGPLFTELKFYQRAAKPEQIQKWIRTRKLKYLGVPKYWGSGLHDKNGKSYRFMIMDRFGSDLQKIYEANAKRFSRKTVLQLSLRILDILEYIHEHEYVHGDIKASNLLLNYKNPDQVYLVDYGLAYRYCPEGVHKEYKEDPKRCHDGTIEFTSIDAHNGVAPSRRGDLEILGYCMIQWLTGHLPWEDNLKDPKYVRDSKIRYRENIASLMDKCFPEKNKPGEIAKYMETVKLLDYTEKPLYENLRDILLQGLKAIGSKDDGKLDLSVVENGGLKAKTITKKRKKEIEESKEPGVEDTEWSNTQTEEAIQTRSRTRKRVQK

WEE1 (human) = WEE1 (human) (UniProt P30291)
PHKG1 (human) = PHKG1 (human) (UniProt Q16816)
STK11 (human) = STK11 (human) (UniProt Q15831)
PAK6 (human) = PAK6 (human) (UniProt Q9NQU5)
CDC42BPB (human) = CDC42BPB (human) (UniProt Q9Y5S2)
PRKCB2 (human) = PRKCB2 (human) (UniProt P05771)
PRKCB2 (human), sequence (P05771 whole entry, looked up): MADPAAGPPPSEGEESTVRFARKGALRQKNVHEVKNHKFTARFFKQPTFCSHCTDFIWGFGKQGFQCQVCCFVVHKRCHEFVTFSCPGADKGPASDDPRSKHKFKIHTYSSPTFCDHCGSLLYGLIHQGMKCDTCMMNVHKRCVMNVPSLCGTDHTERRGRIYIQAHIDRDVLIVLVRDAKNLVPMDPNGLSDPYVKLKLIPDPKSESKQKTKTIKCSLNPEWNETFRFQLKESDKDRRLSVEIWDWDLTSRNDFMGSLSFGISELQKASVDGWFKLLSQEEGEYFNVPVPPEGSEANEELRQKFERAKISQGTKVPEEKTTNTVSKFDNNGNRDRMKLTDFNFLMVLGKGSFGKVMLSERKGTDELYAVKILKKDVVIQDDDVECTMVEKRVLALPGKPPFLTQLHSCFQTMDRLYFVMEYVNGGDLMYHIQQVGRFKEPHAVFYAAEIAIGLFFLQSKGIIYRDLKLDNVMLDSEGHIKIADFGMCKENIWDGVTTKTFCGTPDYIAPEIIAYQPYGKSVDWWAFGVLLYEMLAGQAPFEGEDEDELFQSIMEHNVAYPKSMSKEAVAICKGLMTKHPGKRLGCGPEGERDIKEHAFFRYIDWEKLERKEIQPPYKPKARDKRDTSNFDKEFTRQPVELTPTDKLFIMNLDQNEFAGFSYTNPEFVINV

IGF1R (human) = IGF1R (human) (UniProt P08069)
MAPKAPK5 (human) = MAPKAPK5 (human) (UniProt Q8IW41)
HIPK2 (human) = HIPK2 (human) (UniProt Q9H2X6)
RET (human) = RET (human) (UniProt P07949)
SGK2 (human) = SGK2 (human) (UniProt Q9HBY8)
SGK2 (human), sequence (Q9HBY8 whole entry, looked up): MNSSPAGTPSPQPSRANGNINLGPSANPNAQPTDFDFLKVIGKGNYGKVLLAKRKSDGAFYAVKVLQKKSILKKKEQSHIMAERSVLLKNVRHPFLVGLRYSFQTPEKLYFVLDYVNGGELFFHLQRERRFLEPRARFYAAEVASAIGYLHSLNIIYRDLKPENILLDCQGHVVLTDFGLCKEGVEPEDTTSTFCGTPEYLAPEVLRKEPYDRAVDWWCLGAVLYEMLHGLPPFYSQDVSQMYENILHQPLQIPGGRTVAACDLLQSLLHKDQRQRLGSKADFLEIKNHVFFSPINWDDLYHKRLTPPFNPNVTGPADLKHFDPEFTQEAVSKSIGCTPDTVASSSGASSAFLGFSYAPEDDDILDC

MKNK2 (human) = MKNK2 (human) (UniProt Q9HBH9)
RPS6KA5 KD2 (human) = RPS6KA5 KD2 (human) (UniProt O75582)
NEK11 (human) = NEK11 (human) (UniProt Q8NG66)
PAK3 (human) = PAK3 (human) (UniProt O75914)
ZAP70 (human) = ZAP70 (human) (UniProt P43403)
ZAP70 (human), sequence (P43403 whole entry, looked up): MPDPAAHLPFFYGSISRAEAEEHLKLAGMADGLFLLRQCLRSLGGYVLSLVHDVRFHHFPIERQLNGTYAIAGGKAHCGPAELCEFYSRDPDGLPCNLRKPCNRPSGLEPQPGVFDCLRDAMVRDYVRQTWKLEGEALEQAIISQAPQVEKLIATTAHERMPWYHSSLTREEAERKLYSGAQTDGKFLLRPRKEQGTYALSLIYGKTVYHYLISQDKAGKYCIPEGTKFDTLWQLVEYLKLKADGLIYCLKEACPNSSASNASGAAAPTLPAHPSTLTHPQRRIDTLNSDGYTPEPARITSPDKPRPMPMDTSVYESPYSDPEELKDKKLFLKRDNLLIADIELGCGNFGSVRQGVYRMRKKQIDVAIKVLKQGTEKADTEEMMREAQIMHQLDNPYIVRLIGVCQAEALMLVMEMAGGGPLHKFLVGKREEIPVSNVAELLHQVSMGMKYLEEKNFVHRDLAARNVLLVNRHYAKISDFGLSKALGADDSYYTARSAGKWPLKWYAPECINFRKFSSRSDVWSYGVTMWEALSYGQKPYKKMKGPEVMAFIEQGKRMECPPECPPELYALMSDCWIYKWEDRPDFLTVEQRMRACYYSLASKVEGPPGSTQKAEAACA

MAP3K3 (human) = MAP3K3 (human) (UniProt Q99759)
PRKCE (human) = PRKCE (human) (UniProt Q02156)
PAK1 (human) = PAK1 (human) (UniProt Q13153)
WNK3 (human) = WNK3 (human) (UniProt Q9BYP7)
HIPK4 (human) = HIPK4 (human) (UniProt Q8NE63)
MARK1 (human) = MARK1 (human) (UniProt Q9P0L2)
CAMK4 (human) = CAMK4 (human) (UniProt Q16566)
CAMK4 (human), sequence (Q16566 whole entry, looked up): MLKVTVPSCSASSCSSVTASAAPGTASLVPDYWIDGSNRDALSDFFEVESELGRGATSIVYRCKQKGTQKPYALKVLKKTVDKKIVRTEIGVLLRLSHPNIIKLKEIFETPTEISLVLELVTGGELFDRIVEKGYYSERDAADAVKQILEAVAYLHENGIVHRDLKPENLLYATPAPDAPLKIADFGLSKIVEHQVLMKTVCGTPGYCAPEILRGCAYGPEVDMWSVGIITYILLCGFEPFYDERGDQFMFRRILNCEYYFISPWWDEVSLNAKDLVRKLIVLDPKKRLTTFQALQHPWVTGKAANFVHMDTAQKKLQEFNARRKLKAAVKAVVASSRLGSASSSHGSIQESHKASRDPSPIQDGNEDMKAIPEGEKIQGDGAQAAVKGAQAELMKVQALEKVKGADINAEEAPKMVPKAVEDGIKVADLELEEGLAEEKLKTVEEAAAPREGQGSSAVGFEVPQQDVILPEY

BRSK1 (human) = BRSK1 (human) (UniProt Q8TDC3)

ADRBK2 (human), sequence (P35626 whole entry, looked up): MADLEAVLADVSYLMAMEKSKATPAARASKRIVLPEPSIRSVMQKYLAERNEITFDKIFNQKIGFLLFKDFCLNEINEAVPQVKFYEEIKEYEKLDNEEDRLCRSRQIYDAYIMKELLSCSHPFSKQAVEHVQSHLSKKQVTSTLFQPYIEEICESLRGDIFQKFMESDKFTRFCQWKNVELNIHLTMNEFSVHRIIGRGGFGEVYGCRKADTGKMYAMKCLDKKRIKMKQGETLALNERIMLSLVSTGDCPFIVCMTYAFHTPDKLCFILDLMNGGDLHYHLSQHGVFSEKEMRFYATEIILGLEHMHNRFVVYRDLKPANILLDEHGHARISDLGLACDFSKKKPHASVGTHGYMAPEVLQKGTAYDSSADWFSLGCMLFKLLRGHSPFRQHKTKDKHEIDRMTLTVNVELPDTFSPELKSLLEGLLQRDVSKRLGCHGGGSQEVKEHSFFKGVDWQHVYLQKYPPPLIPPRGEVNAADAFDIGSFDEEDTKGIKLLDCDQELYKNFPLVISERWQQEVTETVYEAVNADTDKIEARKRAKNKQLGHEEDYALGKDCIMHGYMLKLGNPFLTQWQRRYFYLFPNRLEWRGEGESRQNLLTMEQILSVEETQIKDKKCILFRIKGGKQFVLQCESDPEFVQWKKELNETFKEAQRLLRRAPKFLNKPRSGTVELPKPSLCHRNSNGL
STK24 (human), sequence (Q9Y6E0 whole entry, looked up): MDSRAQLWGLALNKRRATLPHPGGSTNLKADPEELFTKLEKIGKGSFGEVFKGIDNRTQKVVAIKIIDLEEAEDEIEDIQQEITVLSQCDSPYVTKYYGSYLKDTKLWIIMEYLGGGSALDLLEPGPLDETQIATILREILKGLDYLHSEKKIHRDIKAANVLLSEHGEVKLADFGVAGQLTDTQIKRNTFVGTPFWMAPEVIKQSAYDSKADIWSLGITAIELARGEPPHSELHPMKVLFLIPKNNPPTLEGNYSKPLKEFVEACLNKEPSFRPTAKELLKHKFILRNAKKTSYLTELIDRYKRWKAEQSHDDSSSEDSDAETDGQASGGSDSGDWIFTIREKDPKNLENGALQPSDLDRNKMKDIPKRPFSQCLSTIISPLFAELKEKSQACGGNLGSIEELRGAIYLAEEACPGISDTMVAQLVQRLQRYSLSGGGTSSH

## Cc1ccc(NC(=O)c2ccc(CN3CCN(C)CC3)cc2)cc1Nc1nc(-c2cccnc2)cs1
STK24 (human)
  residual activity: 104%
CDK2 CCNA2 (human)
  residual activity: 94.7%
ADRBK2 (human)
  residual activity: 100%
MAP3K11 (human)
  residual activity: 101%
ALK (human)
  residual activity: 103%
NTRK2 (human)
  residual activity: 101%
MARK4 (human)
  residual activity: 101%
CAMKK1 (human)
  residual activity: 97.6%
TXK (human)
  residual activity: 101%
MYLK2 (human)
  residual activity: 98.7%
EPHA4 (human)
  residual activity: 105%
DAPK3 (human)
  residual activity: 100%
MELK (human)
  residual activity: 84.8%
PRKCZ (human)
  residual activity: 103%
MAPK9 (human)
  residual activity: 110%
MET (human)
  residual activity: 104%
ROCK2 (human)
  residual activity: 95.1%
VRK1 (human)
  residual activity: 97.4%
WEE1 (human)
  residual activity: 97%
PHKG1 (human)
  residual activity: 92.2%
STK11 (human)
  residual activity: 102%
PAK6 (human)
  residual activity: 101%
CDC42BPB (human)
  residual activity: 98.1%
PRKCB2 (human)
  residual activity: 95.9%
IGF1R (human)
  residual activity: 101%
MAPKAPK5 (human)
  residual activity: 103%
HIPK2 (human)
  residual activity: 90.8%
RET (human)
  residual activity: 96.4%
SGK2 (human)
  residual activity: 106%
MKNK2 (human)
  residual activity: 103%
RPS6KA5 KD2 (human)
  residual activity: 103%
NEK11 (human)
  residual activity: 95.1%
PAK3 (human)
  residual activity: 106%
ZAP70 (human)
  residual activity: 112%
MAP3K3 (human)
  residual activity: 108%
PRKCE (human)
  residual activity: 100%
PAK1 (human)
  residual activity: 104%
WNK3 (human)
  residual activity: 99.9%
HIPK4 (human)
  residual activity: 101%
MARK1 (human)
  residual activity: 86.9%
CAMK4 (human)
  residual activity: 98.6%
BRSK1 (human)
  residual activity: 102%
